Assay results: ChEMBL document CHEMBL4265996, “Genetically-encoded fragment-based discovery of glycopeptide ligands for DC-SIGN” (Bioorg Med Chem, 2018)
Activity calls are given as the source filed them. No cut-off for these calls is given here. Where a SMILES comes first, the peptide text is derived from it. The star is where a group is joined. X1 = O=C(/C=N/O[C@H]1O[C@H](CO)[C@@H](O)[C@H](O)[C@@H]1O)*; X2 = O=C(/C=N/O[C@H]1O[C@H](CO)[C@H](O)[C@H](O)[C@H]1O)*

How the values were obtained:
CD209 antigen [1] = target: T1, CD209 antigen (Homo sapiens, UniProt Q9NNX6); test: Binding affinity to DC-SIGN extracellular domain (unknown origin) expressed in Escherichia coli after 1 hr by ELISA
T1 sequence (Q9NNX6 whole entry): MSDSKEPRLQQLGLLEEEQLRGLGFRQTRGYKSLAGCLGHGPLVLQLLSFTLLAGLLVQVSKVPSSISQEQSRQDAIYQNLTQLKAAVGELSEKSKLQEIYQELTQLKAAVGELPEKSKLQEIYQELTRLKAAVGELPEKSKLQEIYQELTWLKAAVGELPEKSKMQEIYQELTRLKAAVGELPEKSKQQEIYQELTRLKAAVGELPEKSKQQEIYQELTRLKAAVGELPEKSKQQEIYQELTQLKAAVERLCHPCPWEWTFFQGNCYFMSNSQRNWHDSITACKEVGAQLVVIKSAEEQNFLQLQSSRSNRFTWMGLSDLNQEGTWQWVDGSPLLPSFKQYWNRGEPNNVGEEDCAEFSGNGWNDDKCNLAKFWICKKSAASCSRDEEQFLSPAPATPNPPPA

[2] = Binding affinity to ConA […] after 1 hr by ELISA
[3] = target: T2, CD209 antigen (Homo sapiens) (UniProt Q9NNX6); test: Binding affinity to recombinant human DC-SIGN expressed in rat-6 fibroblast preincubated with Cy5 conjugated compound for 2 hrs followed by washing and measured by flow cytometric analysis
T2 sequence (whole entry): T1 sequence (Q9NNX6 whole entry)

CD209 antigen [4] = target: T1, CD209 antigen; test: Inhibition of binding of trimannoside containing horseradish peroxidase to DC-SIGN carbohydrate binding domain (unknown origin) expressed in Escherichia coli preincubated for 1 hr followed by TMB substrate addition measured after 30 mins by ELISA
[5] = target: C-type lectin domain family 4 member K (Homo sapiens) (UniProt Q9UJ71); test: Binding affinity to human langerin expressed in human Raji cells preincubated with Cy5 conjugated compound for 2 hrs followed by washing and measured by flow cytometric analysis; type: cell-based
C-type lectin domain family 4 member K (Homo sapiens), sequence (Q9UJ71 whole entry, the tested form may be a part): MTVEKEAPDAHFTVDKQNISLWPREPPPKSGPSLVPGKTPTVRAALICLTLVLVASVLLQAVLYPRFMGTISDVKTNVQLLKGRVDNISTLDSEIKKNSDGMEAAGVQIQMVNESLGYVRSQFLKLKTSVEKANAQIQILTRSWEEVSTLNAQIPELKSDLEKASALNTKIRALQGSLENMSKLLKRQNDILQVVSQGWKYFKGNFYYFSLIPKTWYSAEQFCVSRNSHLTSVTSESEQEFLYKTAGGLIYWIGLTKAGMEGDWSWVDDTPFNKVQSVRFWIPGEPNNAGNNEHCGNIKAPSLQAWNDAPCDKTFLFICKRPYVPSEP

[6] = target: T2, CD209 antigen (Homo sapiens); test: Binding affinity to recombinant human DC-SIGN expressed in human Raji cells preincubated with Cy5 conjugated compound for 2 hrs followed by washing and measured by flow cytometric analysis; type: cell-based

SMILES | EC50 (CD209 antigen [1]) | EC50 [2] | IC50 (CD209 antigen [4]) [µM] | other results
CC(C)[C@H](NC(=O)/C=N/O[C@H]1O[C@H](CO)[C@H](O)[C@H](O)[C@H]1O)C(=O)N[C@@H](CCC(=O)O)C(=O)N[C@@H](CCCCN)C(=O)N[C@@H](CC(N)=O)C(=O)N[C@@H](CC(=O)O)C(=O)N[C@@H](CCC(N)=O)C(=O)N[C@@H](CCCCN)C(=O)N[C@H](C(=O)N[C@@H](Cc1ccc(O)cc1)C(=O)N[C@@H](Cc1cnc[nH]1)C(=O)N[C@@H](C)C(N)=O)[C@@H](C)O (X2-VEKNDQKTYHA-NH2) | 2 ×10¹¹ PFU | – | – | –
CC[C@H](C)[C@H](NC(=O)[C@H](CO)NC(=O)[C@H](CO)NC(=O)/C=N/O[C@H]1O[C@H](CO)[C@@H](O)[C@H](O)[C@@H]1O)C(=O)N[C@H](C(=O)N[C@@H](Cc1cnc[nH]1)C(=O)N[C@@H](C)C(=O)N1CCC[C@H]1C(=O)N[C@@H](CO)C(N)=O)[C@@H](C)O (stereo in doubt) | 2.8 ×10⁹ PFU | > 1 ×10¹¹ PFU | – | –
CC(C)[C@H](NC(=O)/C=N/O[C@H]1O[C@H](CO)[C@@H](O)[C@H](O)[C@@H]1O)C(=O)N[C@@H](CCC(=O)O)C(=O)N[C@@H](CCCCN)C(=O)N[C@@H](CC(N)=O)C(=O)N[C@@H](CC(=O)O)C(=O)N[C@@H](CCC(N)=O)C(=O)N[C@@H](CCCCN)C(=O)N[C@H](C(=O)N[C@@H](Cc1ccc(O)cc1)C(=O)N[C@@H](Cc1cnc[nH]1)C(=O)N[C@@H](C)C(N)=O)[C@@H](C)O (X1-VEKNDQKTYHA-NH2) | 2.6 ×10¹¹ PFU | > 1 ×10¹¹ PFU | – | Activity [3]: inactive
CC[C@H](C)[C@H](NC(=O)[C@H](CO)NC(=O)/C=N/O[C@H]1O[C@H](CO)[C@@H](O)[C@H](O)[C@@H]1O)C(=O)N[C@H](C(=O)N[C@@H](Cc1cnc[nH]1)C(=O)N[C@@H](C)C(=O)N1CCC[C@H]1C(=O)N[C@@H](CO)C(N)=O)[C@@H](C)O (stereo in doubt) | – | – | 450 | –

Now from value to molecule, other results behind:

EC50 (CD209 antigen [1]) | EC50 [2] | IC50 (CD209 antigen [4]) [µM] | SMILES | other results
– | – | 6400 | OC[C@H]1O[C@H](O)[C@@H](O)[C@@H](O)[C@@H]1O | –
3.7 ×10¹⁰ PFU | – | – | CSCC[C@H](NC(=O)/C=N/O[C@H]1O[C@H](CO)[C@H](O)[C@H](O)[C@H]1O)C(=O)N1CCC[C@H]1C(=O)N[C@@H](C)C(=O)N[C@@H](Cc1c[nH]c2ccccc12)C(=O)N[C@@H](CCCNC(=N)N)C(=O)N[C@@H](Cc1cnc[nH]1)C(=O)N[C@@H](C)C(N)=O (X2-MPAWRHA-NH2) | –
– | – | 1400 | [N-]=[N+]=NCCCCCCO[C@H]1O[C@H](CO[C@H]2O[C@H](CO)[C@@H](O)[C@H](O)[C@@H]2O)[C@@H](O)[C@H](O[C@H]2O[C@H](CO)[C@@H](O)[C@H](O)[C@@H]2O)[C@@H]1O | –
– | 2.9 ×10⁹ PFU | – | CC(C)C[C@H](NC(=O)[C@H](CC(=O)O)NC(=O)[C@H](Cc1ccc(O)cc1)NC(=O)[C@H](Cc1c[nH]c2ccccc12)NC(=O)/C=N/OCCO[C@H]1O[C@H](CO)[C@@H](O)[C@H](O)[C@@H]1O)C(=O)N[C@@H](Cc1ccc(O)cc1)C(=O)N[C@@H](Cc1cnc[nH]1)C(N)=O (stereo in doubt) | –
4 ×10⁸ PFU | > 1 ×10¹¹ PFU | – | CSCC[C@H](NC(=O)/C=N/O[C@H]1O[C@H](CO)[C@@H](O)[C@H](O)[C@@H]1O)C(=O)N1CCC[C@H]1C(=O)N[C@@H](C)C(=O)N[C@@H](Cc1c[nH]c2ccccc12)C(=O)N[C@@H](CCCNC(=N)N)C(=O)N[C@@H](Cc1cnc[nH]1)C(=O)N[C@@H](C)C(N)=O (X1-MPAWRHA-NH2) | Activity [5]: inactive; Activity [3]: Active; Activity [6]: Active
